Tests used:
Format in all cases: in vivo, human
[1] = system: adult subjects with schizophrenia; test: Adverse events (TEAE, SAE, special interest, EPS-related TEAE), Clinical Study Two
Procedure: (§1) Subjects who completed this study had the option to continue in the long-term. […] Risperidone-treated subjects were titrated from 2 mg to 6 mg daily over a three-day period and were subsequently maintained at 6 mg/day for the remainder of the treatment period. […] Blood samples were also obtained at Screening/Baseline, Week 3, and Week 6 for clinical laboratory assessments.

[2] = system: adult subjects with schizophrenia; test: PANSS positive subscale score, Clinical Study One; details: ITT; for PANSS Positive Subscale Score, Trt Effect (bifeprunox—placebo): ANCOVA
Procedure: There were five treatment groups in this study. […] Study medication was administered once daily. After Baseline measurements were performed, the titration phase was begun. Bifeprunox treated subjects were titrated up to 5 mg, 10 mg or 20 mg according to a standardized titration schedule (Day 1: 0.125 mg, Day 2: 0.25 mg, Day 3: 0.5 mg, Day 4: 1.0 mg, Day 5: 2.0 mg, Day 6: 5.0 mg, Day 7: 10.0 mg, Day 8: 20 mg). When the assigned dose was reached, subjects were maintained at that dose for the remainder of the six-week treatment period.
The change in the Positive and Negative Symptom Scale (PANSS) total score, from baseline to endpoint, was the primary outcome measure. Secondary efficacy measures included: PANSS positive, PANSS negative, PANSS general psychopathology (GPP) score, PANSS-derived Brief Psychiatric Rating Scale (BPRS) score, Clinical Global Impressions-Severity of Illness (CGI-S), CGI-Improvement (CGI-I) scores, and responder rates. Safety and tolerability evaluations included extrapyramidal symptoms (EPS), weight gain, lipid profile, and serum prolactin.

[3] = system: adult subjects with schizophrenia; test: PANSS responder rate, Clinical Study Two; details: for PANSS 20% responder rate / PANSS 30% responder rate: Endpoint LOCF; for PANSS Responder at Endpoint, 30% Definition Responder, No / PANSS Responder at Endpoint, 30% Definition Responder, Yes / PANSS Responder at Week 6/Endpoint, 20% Definition, No / PANSS Responder at Week 6/Endpoint, 20% Definition, Yes: LOCF, ITT
Procedure: Notable differences were also observed between the 30 mg bifeprunox group and placebo for the change from baseline to endpoint in PANSS general psychopathology subscale score, BPRS total score, BPRS psychosis cluster score, PANSS responder rate, and CGI-I responder rate. […] A CGI-I responder refers to a subject who was categorized as “very much improved” or “much improved” in the CGI Global Improvement scale at endpoint. […]
as §1, with “assessments. […]” for “assessments.”

[4] = Bifeprunox 10 mg, Endpoint LOCF
[5] = Bifeprunox 20 mg, Endpoint LOCF

O=c1[nH]c2cccc(N3CCN(Cc4cccc(-c5ccccc5)c4)CC3)c2o1 [Bifeprunox, 7-[4-([1,1′-biphenyl]-3-ylmethyl)-1-piperazinyl]-2(3H)-benzoxazolone]
SOMNOLENCE, % ([1]; BX 40 mg): 1 (<1%) | TARDIVE DYSKINESIA, % ([1]; BX 40 mg): 1 (<1%) | TREMOR, % ([1]; BX 40 mg): 7% | safety and tolerability ([1]; bifeprunox 30 mg and 40 mg, 6 weeks): safe and well tolerated | incidence of severe TEAE of schizophrenia ([1]; bifeprunox groups (30, 40 mg)): 3% | Change from Baseline in PANSS Positive Subscale Score, Mean (S.D.) ([2]; Bifeprunox 5 mg, Endpoint LOCF): −3.2 (5.2) | Change from Baseline in PANSS Positive Subscale Score, Median ([2]; Bifeprunox 5 mg, Endpoint LOCF): −3 | PANSS Positive Subscale Score, Trt Effect (bifeprunox—placebo) ([2]; Bifeprunox 5 mg, Endpoint LOCF): −1.1 | Change from Baseline in PANSS Positive Subscale Score, Mean (S.D.) ([2]; Bifeprunox 5 mg, Week 1, LOCF): −1.1 (3.4) | Change from Baseline in PANSS Positive Subscale Score, Median ([2]; Bifeprunox 5 mg, Week 1, LOCF): −1 | Change from Baseline in PANSS Positive Subscale Score, Mean (S.D.) ([2]; Bifeprunox 5 mg, Week 2, LOCF): −2.1 (4.0) | Change from Baseline in PANSS Positive Subscale Score, Median ([2]; Bifeprunox 5 mg, Week 2, LOCF): −2 | Change from Baseline in PANSS Positive Subscale Score, Mean (S.D.) ([2]; Bifeprunox 5 mg, Week 3, LOCF): −2.6 (4.7) | Change from Baseline in PANSS Positive Subscale Score, Median ([2]; Bifeprunox 5 mg, Week 3, LOCF): −3 | Change from Baseline in PANSS Positive Subscale Score, Mean (S.D.) ([2]; Bifeprunox 5 mg, Week 4, LOCF): −3.0 (5.0) | Change from Baseline in PANSS Positive Subscale Score, Median ([2]; Bifeprunox 5 mg, Week 4, LOCF): −4 | Change from Baseline in PANSS Positive Subscale Score, Mean (S.D.) [2, 4]: −1.4 (6.1) | Change from Baseline in PANSS Positive Subscale Score, Median [2, 4]: −1 | PANSS Positive Subscale Score, Trt Effect (bifeprunox—placebo) [2, 4]: 0.7 | Change from Baseline in PANSS Positive Subscale Score, Mean (S.D.) ([2]; Bifeprunox 10 mg, Week 1, LOCF): −0.6 (3.9) | Change from Baseline in PANSS Positive Subscale Score, Median ([2]; Bifeprunox 10 mg, Week 1, LOCF): −1 | Change from Baseline in PANSS Positive Subscale Score, Mean (S.D.) ([2]; Bifeprunox 10 mg, Week 2, LOCF): −1.2 (4.7) | Change from Baseline in PANSS Positive Subscale Score, Median ([2]; Bifeprunox 10 mg, Week 2, LOCF): −1 | Change from Baseline in PANSS Positive Subscale Score, Mean (S.D.) ([2]; Bifeprunox 10 mg, Week 3, LOCF): −1.1 (5.5) | Change from Baseline in PANSS Positive Subscale Score, Median ([2]; Bifeprunox 10 mg, Week 3, LOCF): −1 | Change from Baseline in PANSS Positive Subscale Score, Mean (S.D.) ([2]; Bifeprunox 10 mg, Week 4, LOCF): −1.1 (5.6) | Change from Baseline in PANSS Positive Subscale Score, Median ([2]; Bifeprunox 10 mg, Week 4, LOCF): −1 | Change from Baseline in PANSS Positive Subscale Score, Mean (S.D.) [2, 5]: −3.5 (5.1) | Change from Baseline in PANSS Positive Subscale Score, Median [2, 5]: −3 | PANSS Positive Subscale Score, Trt Effect (bifeprunox—placebo) [2, 5]: −1.5 | Change from Baseline in PANSS Positive Subscale Score, Mean (S.D.) ([2]; Bifeprunox 20 mg, Week 1, LOCF): −1.7 (3.5) | Change from Baseline in PANSS Positive Subscale Score, Median ([2]; Bifeprunox 20 mg, Week 1, LOCF): −1 | Change from Baseline in PANSS Positive Subscale Score, Mean (S.D.) ([2]; Bifeprunox 20 mg, Week 2, LOCF): −2.7 (4.3) | Change from Baseline in PANSS Positive Subscale Score, Median ([2]; Bifeprunox 20 mg, Week 2, LOCF): −3 | Change from Baseline in PANSS Positive Subscale Score, Mean (S.D.) ([2]; Bifeprunox 20 mg, Week 3, LOCF): −3.3 (4.4) | Change from Baseline in PANSS Positive Subscale Score, Median ([2]; Bifeprunox 20 mg, Week 3, LOCF): −3 | Change from Baseline in PANSS Positive Subscale Score, Mean (S.D.) ([2]; Bifeprunox 20 mg, Week 4, LOCF): −3.5 (4.8) | Change from Baseline in PANSS Positive Subscale Score, Median ([2]; Bifeprunox 20 mg, Week 4, LOCF): −3 | PANSS 20% responder rate ([3]; bifeprunox 30 mg): 36% | PANSS 30% responder rate ([3]; bifeprunox 30 mg): 24% | PANSS Responder at Endpoint, 30% Definition Responder, No ([3]; bifeprunox 30 mg): 106 (76%) n (%) | PANSS Responder at Endpoint, 30% Definition Responder, Yes ([3]; bifeprunox 30 mg): 34 (24%) n (%) | PANSS Responder at Week 6/Endpoint, 20% Definition, No ([3]; bifeprunox 30 mg): 89 (64%) n (%) | PANSS Responder at Week 6/Endpoint, 20% Definition, Yes ([3]; bifeprunox 30 mg): 51 (36%) n (%) | PANSS 20% responder rate ([3]; bifeprunox 40 mg): 30% | PANSS 30% responder rate ([3]; bifeprunox 40 mg): 22% | PANSS Responder at Endpoint, 30% Definition Responder, No ([3]; bifeprunox 40 mg): 110 (78%) n (%) | PANSS Responder at Endpoint, 30% Definition Responder, Yes ([3]; bifeprunox 40 mg): 31 (22%) n (%) | PANSS Responder at Week 6/Endpoint, 20% Definition, No ([3]; bifeprunox 40 mg): 99 (70%) n (%) | PANSS Responder at Week 6/Endpoint, 20% Definition, Yes ([3]; bifeprunox 40 mg): 42 (30%) n (%)

— patent US20090068290A1, “BIFEPRUNOX DOSES FOR TREATING SCHIZOPHRENIA” (priority 2006, published 2009)
